Source: patent publication US6737383B1, “Herbicidal oxadiazolidines” (priority 1999, dated 2004)

Key:
[1] = system: wild oat; assay: Test B pre/postemergence wild oat; assay type: in vivo, Avena fatua
Procedure, shortened: (§1)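 Response is a visual 0-to-10 score relative to untreated plants, where 0 means no effect and 10 means complete control, taken twelve to sixteen days after application. Treatments went onto soil at planting and onto foliage of 1- to 4-leaf plants, using a surfactant-containing non-phytotoxic solvent.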

[2] = system: purple nutsedge; assay: Test B pre/postemergence purple nutsedge; assay type: in vivo, Cyperus rotundus
Procedure, shortened: as §1

[3] = system: morningglory; assay: Test B pre/postemergence morningglory; assay type: in vivo, Ipomoea hederacea
Procedure, shortened: as §1

[4] = system: cocklebur; assay: Test B pre/postemergence cocklebur; assay type: in vivo, Xanthium strumarium
Procedure, shortened: as §1

[5] = system: sugar beet; assay: Test B pre/postemergence sugar beet; assay type: in vivo, Beta vulgaris
Procedure, shortened: as §1

[6] = system: velvetleaf; assay: Test B pre/postemergence velvetleaf; assay type: in vivo, Abutilon theophrasti
Procedure, shortened: as §1

[7] = system: blackgrass; assay: Test B pre/postemergence blackgrass; assay type: in vivo, Alopecurus myosuroides
Procedure, shortened: as §1

[8] = system: crabgrass; assay: Test B pre/postemergence crabgrass; assay type: in vivo, Digitaria sanguinalis
Procedure, shortened: as §1

[9] = system: duck salad; assay: Test B flood test duck salad; assay type: in vivo, Heteranthera limosa
Procedure, shortened: (§2)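 Flood test on plants grown to the 2-leaf stage; treated plants kept in greenhouse twelve to sixteen days, then visually rated against controls on a 0 (no effect) to 10 (complete control) scale.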

[10] = system: soybean; assay: Test B pre/postemergence soybean; assay type: in vivo, Glycine max
Procedure, shortened: as §1

[11] = system: rape; assay: Test B pre/postemergence rape; assay type: in vivo, Brassica napus
Procedure, shortened: as §1

[12] = system: giant foxtail; assay: Test B pre/postemergence giant foxtail; assay type: in vivo, Setaria faberii
Procedure, shortened: as §1

[13] = system: corn; assay: Test B pre/postemergence corn; assay type: in vivo, Zea mays
Procedure, shortened: as §1

[14] = system: surinam grass; assay: Test B pre/postemergence surinam grass; assay type: in vivo, Brachiaria decumbens
Procedure, shortened: as §1

[15] = system: wheat; assay: Test B pre/postemergence wheat; assay type: in vivo, Triticum aestivum
Procedure, shortened: as §1

[16] = system: smallflower flatsedge; assay: Test B flood test smallflower flatsedge; assay type: in vivo, Cyperus difformis
Procedure, shortened: as §2

[17] = Postemergence, Rate 62 g/ha, scale 0 to 10, 0 is no effect, 10 is complete control
[18] = Postemergence, Rate 250 g/ha, scale 0 to 10, 0 no effect, 10 complete control
[19] = Preemergence, Rate 62 g/ha, scale 0 to 10 (0 no effect, 10 complete control)
[20] = Preemergence, Rate 125 g/ha, scale 0 to 10 (0 no effect, 10 complete control)
[21] = Preemergence, Rate 250 g/ha, scale of 0 to 10 where 0 is no effect and 10 is complete control
[22] = Preemergence, Rate 500 g/ha, scale 0 (no effect) to 10 (complete control)
[23] = Rate 125 g/ha, Postemergence, scale 0 to 10, 0 no effect, 10 complete control
[24] = Rate 500 g/ha, Postemergence, scale 0 to 10, 0 no effect, 10 complete control
[25] = Rate 125 g/ha, Postemergence section (flood test species), scale 0 to 10, 0 no effect, 10 complete control
[26] = Rate 500 g/ha, listed under Postemergence (flood test species), scale 0 to 10, 0 no effect, 10 complete control
[27] = flood test, listed under Postemergence, Rate 250 g/ha, scale 0 to 10, 0 no effect, 10 complete control

Cc1cccc(C(C)C)c1-n1c(=O)on(C(=O)N(c2ccccc2)C(C)C)c1=O [Compound 66]
Wild oats plant response rating [1, 17]: 0 | Wild oats plant response rating [1, 18]: 0 | Wild oats plant response rating [1, 19]: 0 | Plant response rating, Wild oats [1, 20]: 0 | Plant response rating, Wild oats [1, 21]: 0 | Wild oats plant response rating [1, 22]: 2 | Wild oats plant response rating [1, 23]: 0 | Wild oats plant response rating [1, 24]: 0 | Nutsedge plant response rating [2, 17]: 0 | Nutsedge plant response rating [2, 18]: 0 | Nutsedge plant response rating [2, 19]: 0 | Plant response rating, Nutsedge [2, 20]: 0 | Nutsedge plant response rating [2, 22]: 6 | Nutsedge plant response rating [2, 23]: 0 | Nutsedge plant response rating [2, 24]: 0 | Morningglory plant response rating [3, 17]: 0 | Morningglory plant response rating [3, 18]: 1 | Morningglory plant response rating [3, 19]: 0 | Plant response rating, Morningglory [3, 20]: 0 | Plant response rating, Morningglory [3, 21]: 0 | Morningglory plant response rating [3, 22]: 0 | Morningglory plant response rating [3, 23]: 1 | Morningglory plant response rating [3, 24]: 2 | Cocklebur plant response rating [4, 17]: 0 | Cocklebur plant response rating [4, 18]: 0 | Cocklebur plant response rating [4, 19]: 0 | Plant response rating, Cocklebur [4, 20]: 0 | Plant response rating, Cocklebur [4, 21]: 0 | Cocklebur plant response rating [4, 22]: 0 | Cocklebur plant response rating [4, 23]: 0 | Cocklebur plant response rating [4, 24]: 0 | Sugarbeets plant response rating [5, 17]: 0 | Sugarbeets plant response rating [5, 18]: 0 | Sugarbeets plant response rating [5, 19]: 0 | Plant response rating, Sugarbeets [5, 20]: 0 | Plant response rating, Sugarbeets [5, 21]: 0 | Sugarbeets plant response rating [5, 22]: 0 | Sugarbeets plant response rating [5, 23]: 0 | Sugarbeets plant response rating [5, 24]: 0 | Velvetleaf plant response rating [6, 17]: 0 | Velvetleaf plant response rating [6, 18]: 0 | Velvetleaf plant response rating [6, 19]: 0 | Plant response rating, Velvetleaf [6, 20]: 0 | Plant response rating, Velvetleaf [6, 21]: 0 | Velvetleaf plant response rating [6, 22]: 0 | Velvetleaf plant response rating [6, 23]: 0 | Velvetleaf plant response rating [6, 24]: 2 | Blackgrass plant response rating [7, 17]: 0 | Blackgrass plant response rating [7, 18]: 2 | Blackgrass plant response rating [7, 19]: 0 | Plant response rating, Blackgrass [7, 20]: 0 | Plant response rating, Blackgrass [7, 21]: 0 | Blackgrass plant response rating [7, 22]: 0 | Blackgrass plant response rating [7, 23]: 0 | Blackgrass plant response rating [7, 24]: 3 | Crabgrass plant response rating [8, 17]: 0 | Crabgrass plant response rating [8, 18]: 0 | Crabgrass plant response rating [8, 19]: 0 | Plant response rating, Crabgrass [8, 20]: 2 | Plant response rating, Crabgrass [8, 21]: 4 | Crabgrass plant response rating [8, 22]: 8 | Crabgrass plant response rating [8, 23]: 0 | Crabgrass plant response rating [8, 24]: 0 | Ducksalad plant response rating [9, 17]: 0 | Ducksalad plant response rating [9, 25]: 0 | Ducksalad plant response rating [9, 26]: 2 | Ducksalad plant response rating [9, 27]: 0 | Soybean plant response rating [10, 17]: 1 | Soybean plant response rating [10, 18]: 2 | Soybean plant response rating [10, 19]: 0 | Plant response rating, Soybean [10, 20]: 0 | Plant response rating, Soybean [10, 21]: 0 | Soybean plant response rating [10, 22]: 0 | Soybean plant response rating [10, 23]: 1 | Soybean plant response rating [10, 24]: 3 | Rape plant response rating [11, 17]: 0 | Rape plant response rating [11, 18]: 0 | Rape plant response rating [11, 19]: 0 | Plant response rating, Rape [11, 20]: 0 | Plant response rating, Rape [11, 21]: 0 | Rape plant response rating [11, 22]: 0 | Rape plant response rating [11, 23]: 0 | Rape plant response rating [11, 24]: 0 | Giant foxtail plant response rating [12, 17]: 0 | Giant foxtail plant response rating [12, 18]: 0 | Giant foxtail plant response rating [12, 19]: 4 | Plant response rating, Giant foxtail [12, 20]: 4 | Plant response rating, Giant foxtail [12, 21]: 6 | Giant foxtail plant response rating [12, 22]: 9 | Giant foxtail plant response rating [12, 23]: 0 | Giant foxtail plant response rating [12, 24]: 0 | Corn plant response rating [13, 17]: 0 | Corn plant response rating [13, 18]: 0 | Corn plant response rating [13, 19]: 0 | Plant response rating, Corn [13, 20]: 0 | Plant response rating, Corn [13, 21]: 0 | Corn plant response rating [13, 22]: 0 | Corn plant response rating [13, 23]: 0 | Corn plant response rating [13, 24]: 2 | B. signalgrass plant response rating [14, 17]: 0 | B. signalgrass plant response rating [14, 18]: 0 | B. signalgrass plant response rating [14, 19]: 0 | Plant response rating, B. signalgrass [14, 20]: 0 | Plant response rating, B. signalgrass [14, 21]: 0 | B. signalgrass plant response rating [14, 22]: 0 | B. signalgrass plant response rating [14, 23]: 0 | B. signalgrass plant response rating ([14]; Rate 500 g/ha, Postemergence, scale of 0 to 10 where 0 is no effect and 10 is complete control): 0 | Wheat plant response rating [15, 17]: 0 | Wheat plant response rating [15, 18]: 0 | Wheat plant response rating [15, 19]: 0 | Plant response rating, Wheat [15, 20]: 0 | Plant response rating, Wheat [15, 21]: 0 | Wheat plant response rating [15, 22]: 0 | Wheat plant response rating [15, 23]: 0 | Wheat plant response rating [15, 24]: 0 | S. Flatsedge plant response rating [16, 17]: 0 | S. Flatsedge plant response rating [16, 25]: 0 | S. Flatsedge plant response rating [16, 26]: 3 | S. Flatsedge plant response rating [16, 27]: 2
